Test results taken from patent US20090131354A1, “miR-126 REGULATED GENES AND PATHWAYS AS TARGETS FOR THERAPEUTIC INTERVENTION” (priority 2007, published 2009).

Columns and labels:
[1] = test system: H1299 lung cancer cells; assay: Alamar Blue proliferation assay, H1299; assay type: cell-based, human; conditions: relative to NC miRNA (100%)
Text: (§1) The inventors assessed the therapeutic effect of hsa-miR-126 for lung cancer by using 11 individual lung cancer cell lines. To measure cellular proliferation of lung cancer cells, the following non-small cell lung cancer (NSCLC) cells were used: cells derived from lung adenocarcinoma (A549, H1299, H522, H838, Calu-3, HCC827, HCC2935), cells derived from lung squamous cell carcinoma (H520, H226), cells derived from lung bronchioalveolar carcinoma (H1650), and cells derived from lung large cell carcinoma (H460). Synthetic hsa-miR-126 (Pre-miR™-hsa-miR-126, Ambion cat. no. AM17100) or negative control (NC) miRNA (Pre-miR™ microRNA Precursor Molecule-Negative Control #2; Ambion cat. no. AM17111) was delivered via lipid-based transfection into A549, H1299, H522, H838, Calu-3, HCC827, HCC2935, H520, H1650, and H460 cells, and via electroporation into H226 cells.
(§2) Lipid-based reverse transfections were carried out in triplicate according to a published protocol (Ovcharenko et al., 2005) and the following parameters: Cells (5,000-12,000 per 96 well), 0.1-0.2 μl Lipofectamine™ 2000 (cat. no. 11668-019, Invitrogen Corp., Carlsbad, Calif., USA) in 20 μl OptiMEM (Invitrogen), 30 nM final concentration of miRNA in 100 μl. Electroporation of H226 cells was carried out using the BioRad Gene Pulser Xcell™ instrument (BioRad Laboratories Inc., Hercules, Calif., USA) with the following settings: 5×10^6 cells with 5 μg miRNA in 200 μl OptiMEM (1.6 μM miRNA), square wave pulse at 250 V for 5 ms. Electroporated H226 cells were seeded at 7,000 cells per 96-well in a total volume of 100 μl. All cells except for Calu-3 cells were harvested 72 hours post transfection or electroporation for assessment of cellular proliferation. Calu-3 cells were harvested 10 days post transfection. Proliferation assays were performed using Alamar Blue (Invitrogen) following the manufacturer's instructions. As a control for inhibition of cellular proliferation, siRNA against the motor protein kinesin 11, also known as Eg5, was used. […]

[2] = test system: H522 lung cancer cells; assay: Alamar Blue proliferation assay, H522; assay type: cell-based, human; conditions: relative to NC miRNA (100%)
Text: as §1, §2

[3] = test system: SCLC and NSCLC cells; conditions: various lung cancer cells; cited from earlier work
[4] = test system: lung cancer cells A549, H1299, H522, H838, Calu-3, HCC827, HCC2935, H520, H1650, H460, H226; assay: Alamar Blue proliferation assay, all lung cancer cell lines tested; assay type: cell-based, human; conditions: 30 nM
Text: as §1
Lipid-based reverse transfections were carried out in triplicate according to a published protocol (Ovcharenko et al., 2005) and the following parameters: Cells (5,000-12,000 per 96 well), 0.1-0.2 μl Lipofectamine™ 2000 (cat. no. 11668-019, Invitrogen Corp., Carlsbad, Calif., USA) in 20 μl OptiMEM (Invitrogen), 30 nM final concentration of miRNA in 100 μl. […]

[5] = test system: prostate cancer cells PPC-1, Du145, LNCaP and RWPE2; assay: Alamar Blue proliferation assay, all prostate cancer cell lines tested; assay type: cell-based, human
Text: The inventors assessed the therapeutic effect of hsa-miR-126 for prostate cancer by using 4 individual human prostate cancer cell lines. To measure cellular proliferation of prostate cancer cells, the following prostate cancer cell lines were used: PPC-1, derived from a bone metastasis; Du145, derived from a brain metastasis; RWPE2, derived from prostate cells immortalized by human papillomavirus 18 and transformed by the K-RAS oncogene; and LNCaP, derived from a lymph node metastasis (Stone et al., 1978; Horoszewicz et al., 1980; Brothman et al., 1991; Pretlow et al., 1993; Bello et al., 1997). PPC-1 and Du145 cells lack expression of the prostate-specific antigen (PSA) and are independent of androgen receptor (AR) signaling. In contrast, RWPE2 and LNCaP cells test positive for PSA and AR. Cells were transfected with synthetic hsa-miR-126 (Pre-miR™-hsa-miR-126, Ambion cat. no. AM 17100) or negative control miRNA (NC; Pre-miR™ microRNA Precursor Molecule-Negative Control #2; Ambion cat. no. AM17111) in a 96-well format using a lipid-based transfection reagent. […] Proliferation was assessed 4-7 days post-transfection using Alamar Blue™ (Invitrogen) following the manufacturer's instructions. […] Fluorescent light units (FLU) were measured after 3 hours, normalized to the control, and plotted as percent change in proliferation. […]

COc1cc([C@@H]2c3cc4c(cc3[C@@H](O[C@@H]3O[C@@H]5CO[C@@H](C)O[C@H]5[C@H](O)[C@H]3O)[C@H]3COC(=O)[C@H]23)OCO4)cc(OC)c1O [etoposide]
% proliferation ([1]; H1299, 10 μM): 79.65%
% proliferation ([1]; H1299, 50 μM): 54.38%
% proliferation ([2]; H522, 10 μM): 82.13%
% proliferation ([2]; H522, 50 μM): 61.08%
IC50 [3]: 1 to 25 µM

hsa-miR-126 (UCGUACCGUGAGUAAUAAUGC; synthetic pre-miR form, further chemistry not given here) [Synthetic hsa-miR-126 (Pre-miR™-hsa-miR-126, Ambion cat. no. AM17100)]
% proliferation ([1]; H1299, 30 nM, 72 h): 89.37%
% proliferation ([2]; H522, 30 nM, 72 h): 74.62%
average inhibition of cellular proliferation ([4]; average of 11 lung cancer cell lines): 25.33%
growth-inhibitory activity compared with etoposide ([4]; lung cancer cell lines): comparable to that of etoposide at concentrations >10 μM
average inhibition of cellular proliferation ([5]; average of PPC-1, Du145, LNCaP, RWPE2, 30 nM): 23.07%
growth-inhibitory activity compared with siEg5 ([5]; prostate cancer cell lines, 30 nM): comparable to that of Eg5-directed siRNA
